The source of these data is article PMC5778159 (Naunyn-Schmiedeberg's Archives of Pharmacology, 2017).

Series [1] in a line: Pharmacokinetic study in rats after single i.v. or i.p. tianeptine, non-compartmental analysis. Particulars: rat. How it is done: Male Wistar rats, 13–15 weeks of age and weighing between 200 and 220 g, were used in all the experiments. They were kept under conditions of constant temperature (21–25 °C) and a relative humidity of approximately 40–65% with a standard light/dark cycle. Animals were housed in the stainless steel cages with suspended wire-mesh floors and had free access to water and the commercial rodent chow.
Six rats were used in PK experiments, and 3 days prior to the experiment, rat jugular vein was cannulated allowing for the multiple blood sampling from a single animal. […] Plasma was harvested by centrifuging at 3000 r.p.m. for 10 min and stored at − 30°C until bioanalysis. Plasma samples (100 μL) were further processed as described in “Sample preparation” section.
(§1) Pharmacokinetic parameters were calculated by employing a non-compartmental approach, using Phoenix WinNonlin software v. 6.3 (Pharsight, USA). For i.v. administration, plasma concentration at time zero (C 0) was back-extrapolated using log-linear regression, while the maximum concentration after i.p. administration (C max) and the time to C max (t max) were obtained directly from the concentration-time data. The area under the mean plasma concentration versus time curve extrapolated to infinity (AUC0-inf) was estimated using the log/linear trapezoidal rule. AUMC0-inf was estimated by calculation of the total area under the first-moment curve by combining the trapezoid calculation of AUMC0-t and extrapolated area. The mean residence time (MRT) was calculated from AUMC0-inf/AUC0-inf. The terminal rate constant (λ z) was calculated by log-linear regression of the drug concentration data in the terminal phase and the terminal half-life (t 1/2) was calculated as 0.693/λ z. The systemic clearance (CL) was estimated from the administered dose divided by AUC0-inf. The volume of distribution at steady state (V ss) was calculated from D i.v.⋅AUMC/AUC^2, where D i.v is the dose administered i.v. in mg per kg of body weight. The concentration versus time profiles of the parent drug and metabolite following both routes of administration were also fitted simultaneously to the pharmacokinetic model with a metabolite compartment to obtain one set of parameters. During iteration process, the fraction of dose absorbed (F) was fixed to the value calculated using the following equation:1 F=AUC0−ti.p.∙Di.v./AUC0−ti.v.∙Di.p.
where AUC0-t is the area under the concentration versus time curve calculated to the last measured point and D is the dose administered.

Series [2] in a line: Stability of analytes in rat plasma (bench top, freezer, freeze/thaw, autosampler). In kind it is in vitro ADME. Particulars: bench top 2 h, − 30°C 90 days, autosampler 10°C up to 24 h. As for the experimental part:
The stability of analytes was determined in the battery of tests according to the appropriate guidelines. Namely, the bench top stability (for 2 h), freezer stability (at − 30°C for 90 days), freeze/thaw stability and post preparative autosampler stability (at 10°C up to 24 h). Samples were considered to be stable when 85–115% of the initial concentrations were found.

The conditions of series [3]: humans ref Carlhant et al. [1990]; cited from earlier work.
Series [4] is described as follows: PK model with a metabolite compartment fitted simultaneously to i.v. and i.p. rat plasma data. As for the experimental part:
as §1

Series [5] can be described thus: Isolated perfused rat liver (IPRL) study, recirculating. Particulars: for form eliminated with bile: mass spectrometric analysis of rat bile, precursor ion 292 mode. As for the experimental part: Rat livers were perfused in situ using PS-1 perfusion system from Harvard Apparatus-Hugo Sachs Electronics (HA-HSE). […] The temperature of the perfusion medium was thermostatically controlled at 37 °C. In each experiment, the common bile duct was cannulated with PE-10 tubing. […] Experiments were carried out in a recirculating manner with the total volume of perfusate equal 200 mL. […] Samples of bile were collected in pre-weighed Eppendorf vials and measured by gravimetric volume at the end of perfusion period, assuming a density of 1. Perfusate was collected from the reservoir at 5 min intervals up to 45 min.
Non-compartmental estimates of hepatic pharmacokinetic parameters were determined from the outflow concentration-time profiles. The hepatic extraction ratio (ERH) was calculated according to the following equation:2 ERH=CLH/Q where CLH is a hepatic clearance (per gram of liver) and Q is a perfusate flow (per gram of liver).
The apparent hepatobiliary clearance (CLb,app) was calculated as the cumulative amount of drug excreted in bile divided by the AUC0-t of the drug in the perfusate.

Where [6] appears, read: male, Wistar, in vivo, ip, 10 mg/kg.
[7] abbreviates: male, Wistar, in vivo, iv, 1 mg/kg.

SMILES strings stand for the structures. Where a name gives a salt, the structure may show the parent alone.

Regarding `CN1c2ccccc2C(NCCCCC(=O)O)c2ccc(Cl)cc2S1(=O)=O` (centres unmarked) [MC5, tianeptine metabolite MC5 sodium salt], the “time at which C max attained” value in series [1] (after both routes of administration (i.v. and i.p.) of tianeptine) stood at 30 min. Besides, the “t 0.5λz” value in series [1] (after tianeptine i.p. 10 mg/kg, GM (90% CI), n = 3) was 3.69 (1.39–9.83) h. Besides, in series [1] (setting [6]), the Cmax – broadly, the maximum level reached in the sampled fluid or tissue – amounted to 2020 ng/mL; the MRT (as a rule, the average time that molecules of a dose stay in the body) worked out at 4.1 h; the Tmax (in general, the time at which the peak concentration occurs) amounted to 0.5 h; the k el was 5.19e-05 s⁻¹. Besides, in series [1] (setting [7]), the MRT turned out to be 8.28 h; the Tmax came to 0.4 h; the half-life (in general, the time in which the quantity being followed falls by half) was 7.53 h; the k el was 2.5e-05 s⁻¹. Further, in series [1] (regardless of the route of administration), the “overall exposure (AUC) to MC5 relative to tianeptine” value was found to be 1.2 times. The “stability in rat plasma” value in series [2] is reported as “no stability related problems”. Besides, the “time to C max” value in series [3] is 2.96 ± 0.95 h. In addition, in series [4] (male, Wistar, in vivo), the half-life is 1.66 h and the k el was 0.000116 s⁻¹. Besides, the V m/f m in series [4] (metabolite compartment, i.v. and i.p. fitted simultaneously) came out at 2.971 L/kg. Moreover, the “metabolic ratio of MC5 (AUC0-t metabolite / AUC0-t tianeptine)” value in series [5] (isolated perfused rat liver, mean ± SD) was 18.76 ± 8.11%. In addition, in series [5], the “form eliminated with bile” value is “glucuronide and glutamine conjugates”. In addition, the “percent eliminated into the bile” value in series [5] (up to 45 min of perfusion, mean ± SD) was 3.07 ± 0.66 % of the administered dose.

Turning to `CN1c2ccccc2C(NCCCCCCC(=O)O)c2ccc(Cl)cc2S1(=O)=O` (centres unmarked) [Tianeptine, Tianeptine sodium salt, reference compound], in series [5], the “form eliminated with bile” value is “glucuronide and glutamine conjugates”.
